The values below are quoted from earlier work in US6440947B1, “Method for treating occlusive peripheral vascular disease and coronary disease” (The Regents of the University of California, priority 1997, dated 2002).

Data set [1] concerns human umbilical vein endothelial cell cultures. To be noted: physiological concentrations.

On to `Nc1ncnc2c1ncn2[C@@H]1O[C@H](CO)[C@@H](O)[C@H]1O` [Adenosine, adenosine], for which the half-life in vivo entry is “less than 30 seconds”. The “effect on endothelial cell proliferation” value in data set [1] is “stimulates proliferation”.
